Results on one molecule are retold here after ChEMBL document CHEMBL2062390, “3-Phenyl-1H-5-pyrazolylamine-based derivatives as potent and efficacious inhibitors of FMS-like tyrosine kinase-3 (FLT3)” (Bioorg Med Chem Lett, 2012).

A short description of data set [1]: Plasma concentration in Sprague-Dawley rat at 2 mg/kg, iv at 24 hrs. In kind it is ADME, organism-based. Also noted: dose 2 mg/kg, route intravenous.
Data set [2] is described as follows: Volume of distribution in Sprague-Dawley rat at 2 mg/kg, iv. The format is ADME, organism-based. Also on record: dose 2 mg/kg, route intravenous. As to conditions: in vivo.
A short description of data set [3]: Plasma clearance in Sprague-Dawley rat at 2 mg/kg, iv. The format is ADME, organism-based. Also noted: dose 2 mg/kg, route intravenous.
A short description of data set [4]: Half life in Sprague-Dawley rat plasma at 2 mg/kg, iv. Also noted: dose 2 mg/kg, route intravenous. The format is ADME, organism-based.
Data set [5] can be described thus: Oral bioavailability in Sprague-Dawley rat. In kind it is ADME, organism-based. Conditions: in vivo.
For data set [6], the system named is MOLM-13. The data set is described as follows: Antitumor activity against human MOLM13 cells expressing FLT3-ITD mutant xenografted in athymic nude NU-Fox1 mouse assessed as tumor regression at 25 mg/kg, iv administered as single dose. In kind it is functional, organism-based. Also noted: dose 25 mg/kg. In general terms: In xenograft studies the graft and the host belong to different species.

For data set [7], the system named is MOLM-13. Briefly: Antitumor activity against human MOLM13 cells expressing FLT3-ITD mutant xenografted in athymic nude NU-Fox1 mouse assessed as tumor regression at 25 mg/kg, iv administered QD on days 1 to 5 and 8 to 12 measured up to 30 days. In kind it is functional, organism-based. Also noted: dose 25 mg/kg.
The subject of data set [8] is Mus musculus. The data set is described as follows: Toxicity in athymic nude NU-Fox1 mouse xenografted with human MOLM-13 cells assessed as body weight loss at 25 mg/kg, iv administered QD on days 1 to 5 and 8 to 12 measured up to 30 days. In kind it is organism-based. Also on record: dose 25 mg/kg, route intravenous. Conditions: in vivo, 720 h.
The target of data set [9] is T1, Receptor-type tyrosine-protein kinase FLT3 (Homo sapiens, UniProt P36888).
T1 sequence (P36888 whole entry): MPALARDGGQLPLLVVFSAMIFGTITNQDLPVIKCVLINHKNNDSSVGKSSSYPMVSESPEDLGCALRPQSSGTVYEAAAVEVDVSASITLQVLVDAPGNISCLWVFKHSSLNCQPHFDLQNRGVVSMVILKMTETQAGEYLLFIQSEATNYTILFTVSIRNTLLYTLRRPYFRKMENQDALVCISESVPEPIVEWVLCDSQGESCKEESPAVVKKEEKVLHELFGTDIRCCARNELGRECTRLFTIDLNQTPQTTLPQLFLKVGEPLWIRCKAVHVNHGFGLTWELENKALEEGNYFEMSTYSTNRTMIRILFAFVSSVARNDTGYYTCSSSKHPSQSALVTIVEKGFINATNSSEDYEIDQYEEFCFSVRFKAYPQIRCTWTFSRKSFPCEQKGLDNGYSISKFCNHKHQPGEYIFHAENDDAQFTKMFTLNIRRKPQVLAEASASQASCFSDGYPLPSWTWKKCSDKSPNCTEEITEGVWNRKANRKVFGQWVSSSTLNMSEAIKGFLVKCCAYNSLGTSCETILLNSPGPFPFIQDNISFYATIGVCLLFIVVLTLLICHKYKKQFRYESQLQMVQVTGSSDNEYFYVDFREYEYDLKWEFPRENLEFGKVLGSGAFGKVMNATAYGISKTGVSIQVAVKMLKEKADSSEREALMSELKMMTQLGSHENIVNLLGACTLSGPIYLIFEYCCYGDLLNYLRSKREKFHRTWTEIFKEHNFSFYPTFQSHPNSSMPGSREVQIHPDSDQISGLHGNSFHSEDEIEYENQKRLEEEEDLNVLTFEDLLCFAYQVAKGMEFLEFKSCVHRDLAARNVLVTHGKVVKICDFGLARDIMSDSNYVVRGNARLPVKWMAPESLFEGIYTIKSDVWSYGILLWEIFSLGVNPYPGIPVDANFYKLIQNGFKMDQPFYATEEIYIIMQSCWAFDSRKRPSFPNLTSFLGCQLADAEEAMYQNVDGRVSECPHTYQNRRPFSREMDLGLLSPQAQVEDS
Description: Inhibition of wild type FLT3

The target of data set [10] is Vascular endothelial growth factor receptor 2 (Homo sapiens, UniProt P35968).
Vascular endothelial growth factor receptor 2, sequence (P35968 whole entry): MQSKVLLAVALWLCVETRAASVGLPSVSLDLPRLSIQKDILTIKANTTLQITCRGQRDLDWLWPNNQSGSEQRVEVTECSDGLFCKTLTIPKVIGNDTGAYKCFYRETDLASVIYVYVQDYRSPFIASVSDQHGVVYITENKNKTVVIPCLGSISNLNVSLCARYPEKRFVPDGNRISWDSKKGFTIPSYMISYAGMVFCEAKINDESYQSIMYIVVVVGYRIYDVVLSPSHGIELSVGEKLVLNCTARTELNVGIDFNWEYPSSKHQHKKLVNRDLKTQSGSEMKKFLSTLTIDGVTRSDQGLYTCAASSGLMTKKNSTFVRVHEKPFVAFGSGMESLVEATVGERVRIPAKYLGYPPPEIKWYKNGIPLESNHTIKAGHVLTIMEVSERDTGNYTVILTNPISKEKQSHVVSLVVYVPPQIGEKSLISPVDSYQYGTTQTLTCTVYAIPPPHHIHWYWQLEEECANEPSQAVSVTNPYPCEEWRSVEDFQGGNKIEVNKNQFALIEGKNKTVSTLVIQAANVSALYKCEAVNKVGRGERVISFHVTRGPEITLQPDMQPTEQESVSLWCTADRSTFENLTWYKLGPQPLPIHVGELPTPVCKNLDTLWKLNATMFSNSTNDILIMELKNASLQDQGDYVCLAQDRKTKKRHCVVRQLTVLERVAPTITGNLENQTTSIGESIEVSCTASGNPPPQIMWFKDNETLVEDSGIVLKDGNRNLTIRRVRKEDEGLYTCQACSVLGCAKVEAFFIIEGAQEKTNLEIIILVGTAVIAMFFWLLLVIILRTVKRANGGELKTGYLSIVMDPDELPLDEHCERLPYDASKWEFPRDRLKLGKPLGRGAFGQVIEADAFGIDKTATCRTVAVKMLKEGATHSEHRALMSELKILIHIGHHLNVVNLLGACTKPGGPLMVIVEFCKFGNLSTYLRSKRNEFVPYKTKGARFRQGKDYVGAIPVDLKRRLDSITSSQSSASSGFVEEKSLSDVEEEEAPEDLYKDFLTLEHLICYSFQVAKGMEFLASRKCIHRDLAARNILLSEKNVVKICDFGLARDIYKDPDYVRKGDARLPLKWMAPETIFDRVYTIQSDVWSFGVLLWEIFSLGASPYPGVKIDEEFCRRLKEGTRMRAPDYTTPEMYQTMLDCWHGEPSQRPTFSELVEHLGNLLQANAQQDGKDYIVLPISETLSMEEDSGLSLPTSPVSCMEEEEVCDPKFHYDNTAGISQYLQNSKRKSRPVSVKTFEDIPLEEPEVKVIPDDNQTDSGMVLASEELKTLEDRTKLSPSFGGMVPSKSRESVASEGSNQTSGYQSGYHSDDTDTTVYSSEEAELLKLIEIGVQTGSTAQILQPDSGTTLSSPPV
Data set [11] has as its system MV4-11. The data set is described as follows: Antiproliferative activity against human MV4-11 cells expressing FLT3-ITD mutant. The format is functional.
Data set [12] deals with Receptor-type tyrosine-protein kinase FLT3 (Homo sapiens) (UniProt P36888). The data set is described as follows: (§1) Inhibition of FLT3 autophosphorylation in human MV4-11 cells after 2 hrs by Western blot analysis. The format is cell-based.
In data set [13] the target is T1, Receptor-type tyrosine-protein kinase FLT3. The data set is described as §1. The format is cell-based.
Data set [14] in a line: AUC (0 to 4 hrs) in rat at 2 mg/kg, iv. In kind it is ADME, organism-based. Also on record: time < 4 hr, dose 2 mg/kg, route intravenous. As to conditions: plasma.
A short description of data set [15]: Cmax in Sprague-Dawley rat at 2 mg/kg, iv at 5 mins. In kind it is ADME, organism-based. As to conditions: in vivo. Also on record: dose 2 mg/kg, route intravenous.
A short description of data set [16]: AUC in Sprague-Dawley rat at 2 mg/kg, iv. In kind it is ADME, organism-based. Also noted: dose 2 mg/kg, route intravenous. Conditions: plasma.
Data set [17] deals with Vascular endothelial growth factor receptor 1 (Homo sapiens, UniProt P17948).
Vascular endothelial growth factor receptor 1, sequence (P17948 whole entry): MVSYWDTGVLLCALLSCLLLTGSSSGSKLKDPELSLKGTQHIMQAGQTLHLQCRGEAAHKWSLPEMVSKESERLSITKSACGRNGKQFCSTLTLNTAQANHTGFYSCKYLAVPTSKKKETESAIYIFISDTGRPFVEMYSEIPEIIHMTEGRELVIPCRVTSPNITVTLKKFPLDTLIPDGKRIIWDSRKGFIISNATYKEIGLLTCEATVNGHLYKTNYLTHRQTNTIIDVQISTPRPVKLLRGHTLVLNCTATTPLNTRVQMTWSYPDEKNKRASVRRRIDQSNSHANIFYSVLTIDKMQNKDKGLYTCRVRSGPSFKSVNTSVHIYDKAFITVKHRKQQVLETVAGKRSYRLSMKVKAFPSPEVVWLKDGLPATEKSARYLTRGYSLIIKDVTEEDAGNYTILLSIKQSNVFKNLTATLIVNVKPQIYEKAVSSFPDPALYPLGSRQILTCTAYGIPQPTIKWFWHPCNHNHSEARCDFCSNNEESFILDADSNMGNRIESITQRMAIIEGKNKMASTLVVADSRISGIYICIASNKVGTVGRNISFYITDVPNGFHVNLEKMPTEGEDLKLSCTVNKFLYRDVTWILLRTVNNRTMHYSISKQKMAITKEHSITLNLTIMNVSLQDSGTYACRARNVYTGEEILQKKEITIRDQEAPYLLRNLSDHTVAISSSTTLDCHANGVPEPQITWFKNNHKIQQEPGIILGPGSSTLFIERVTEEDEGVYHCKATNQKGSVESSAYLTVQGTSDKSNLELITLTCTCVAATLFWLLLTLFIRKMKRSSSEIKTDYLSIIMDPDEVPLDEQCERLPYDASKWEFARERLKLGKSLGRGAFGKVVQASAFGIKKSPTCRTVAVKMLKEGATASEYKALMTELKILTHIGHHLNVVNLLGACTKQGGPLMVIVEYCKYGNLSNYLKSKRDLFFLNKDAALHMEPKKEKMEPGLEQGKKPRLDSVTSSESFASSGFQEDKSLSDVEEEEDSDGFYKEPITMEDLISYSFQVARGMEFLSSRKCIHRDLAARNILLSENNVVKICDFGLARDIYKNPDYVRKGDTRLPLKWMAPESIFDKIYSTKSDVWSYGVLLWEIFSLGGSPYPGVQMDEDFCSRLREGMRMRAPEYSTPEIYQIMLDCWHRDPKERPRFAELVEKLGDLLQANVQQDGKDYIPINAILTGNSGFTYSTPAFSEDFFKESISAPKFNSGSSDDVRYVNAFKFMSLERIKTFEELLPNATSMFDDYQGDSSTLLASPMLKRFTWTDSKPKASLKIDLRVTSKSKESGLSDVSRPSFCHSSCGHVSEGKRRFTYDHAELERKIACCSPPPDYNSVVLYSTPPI
Data set [18] has as its target T2, Aurora kinase A (Homo sapiens, UniProt O14965).
T2 sequence (O14965 whole entry): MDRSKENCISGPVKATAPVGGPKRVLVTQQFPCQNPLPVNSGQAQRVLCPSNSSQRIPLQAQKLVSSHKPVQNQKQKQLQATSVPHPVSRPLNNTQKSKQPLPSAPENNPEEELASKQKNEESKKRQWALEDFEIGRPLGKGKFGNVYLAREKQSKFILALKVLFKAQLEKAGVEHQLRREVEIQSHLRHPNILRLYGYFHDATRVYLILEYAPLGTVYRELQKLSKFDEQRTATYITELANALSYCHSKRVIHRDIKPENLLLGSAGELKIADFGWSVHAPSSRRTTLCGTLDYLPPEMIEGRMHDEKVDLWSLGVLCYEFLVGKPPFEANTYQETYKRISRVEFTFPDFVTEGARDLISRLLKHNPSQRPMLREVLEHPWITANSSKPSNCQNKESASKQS

Data set [19] concerns MOLM-13. The data set is described as follows: cells. Conditions: Homo sapiens.
Description: Antiproliferative activity against human MOLM13 cells expressing FLT3-ITD mutant

Broadly, the Vd is a proportionality between amount in the body and measured concentration, not a real space. Low values mean little distribution into tissue, high ones wide distribution into tissue. What is called clearance is the volume of plasma or blood freed of the substance per unit of time. A low value points to a low capacity for elimination. A word on the half-life: it is how long it takes for the measured level to halve. In general, bioavailability refers to the share of a dose that reaches the circulation, judged against a reference dose that is usually intravenous. In general, IC50 refers to the concentration that gives 50% inhibition. A high value points to lower potency. In general, GI50 refers to the concentration at which growth is held to half of that of the control. Usually AUC(0-t) stands for the area under the concentration-time curve up to a stated or last time point. Low readings indicate low exposure, high ones high exposure. What is called Cmax is the highest concentration seen after dosing. As a reminder, the AUC is the area under the concentration-time curve, a measure of exposure. Low readings indicate less exposure, high ones more exposure.

The source made the active and inactive calls. No cut-off for these calls is given here.

Turning to `O=C(NCc1ccc(-c2cc(NC(=O)c3ccc(OCCN4CCCC4)cc3)[nH]n2)cc1)OCc1ccccc1`, the concentration at 24 h in [1] worked out at 17 nM. The Vd in [2] stood at 6 L/kg. The molecule further registered a clearance in data set [3] of 16.2 mL/min/kg. Also, in data set [4], the half-life is 6.2 h. The molecule also came in with a bioavailability in data set [5] of 5%. Moreover, the result in [6] and in data set [7] was Active. The Activity entry in [8] is on record as “Non-toxic”. For the same molecule, the IC50 in data set [9] was 0.01 µM; in [10], 0.12 µM; in data set [13], 0.001 µM; in data set [17] it was 0.07 µM; in data set [18], greater than 1 µM. Moreover, the GI50 in data set [11] was 0.003 µM; in [19] it was 0.002 µM. Also, the inhibition entry in data set [12] is “Dose-dependent effect”. The molecule also displayed an AUC(0-t) at 4 h in [14] of 1380 ng·h/mL. The molecule further registered a Cmax in [15] of 5430 nM. Further, the exposure (AUC) in data set [16] came out at 5.79 µM·h.
